Test results taken from the supplement of paper PMC10307832.

Assays:
Experiment in all cases: relative viability (nuclei count vs DMSO), 5 days (fraction); higher = more cells survive
NCI-H23 = system: NCI-H23
In short: (§1)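 Values are medians from duplicate plates. Each reflects relative viability, defined as the nuclei count of treated wells over that of vehicle wells. Lung cancer cell lines in 1536-well plates were pin-tool dosed one day after seeding with one drug alone or with a fixed anchor-drug dose plus five library-drug doses (not always all listed) in √10 steps, then fixed, stained and imaged at 4× after 5 days.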

NCI-H1793 = system: NCI-H1793
In short: as §1

LCLC-103H = system: LCLC-103H
In short: as §1

NCI-H2347 = system: NCI-H2347
In short: as §1

PC-3 [JPC-3] = system: PC-3 [JPC-3]
In short: as §1

NCI-H727 = system: NCI-H727
In short: as §1

NCI-H2228 = system: NCI-H2228
In short: as §1

SW 1573 = system: SW 1573
In short: as §1

LCLC-97TM1 = system: LCLC-97TM1
In short: as §1

NCI-H1650 = system: NCI-H1650
In short: as §1

201T = system: 201T
In short: as §1

HCC-44 = system: HCC-44
In short: as §1

LU99A = system: LU99A
In short: as §1

A-427 = system: A-427
In short: as §1

PC-14 = system: PC-14
In short: as §1

SW 900 = system: SW 900
In short: as §1

COR-L23 = system: COR-L23
In short: as §1

LC-2-ad = system: LC-2-ad
In short: as §1

LK-2 = system: LK-2
In short: as §1

H3255 = system: H3255
In short: as §1

NCI-H460 = system: NCI-H460
In short: as §1

## COc1nc(C)cnc1NS(=O)(=O)c1cccnc1-c1ccc(-c2nnco2)cc1 [Zibotentan] + CC(=O)c1c(C)c2cnc(Nc3ccc(N4CCNCC4)cn3)nc2n(C2CCCC2)c1=O [Palbociclib] (partner 0.5 µM)
NCI-H23; first compound 0.08 µM
  relative viability: 0.586
NCI-H23; first compound 0.253 µM
  relative viability: 0.496
NCI-H23; first compound 0.8 µM
  relative viability: 0.53
NCI-H23; first compound 2.53 µM
  relative viability: 0.527
NCI-H1793; first compound 0.08 µM
  relative viability: 0.362
NCI-H1793; first compound 0.253 µM
  relative viability: 0.378
NCI-H1793; first compound 0.8 µM
  relative viability: 0.287
NCI-H1793; first compound 2.53 µM
  relative viability: 0.296
LCLC-103H; first compound 0.08 µM
  relative viability: 0.459
LCLC-103H; first compound 0.253 µM
  relative viability: 0.477
LCLC-103H; first compound 0.8 µM
  relative viability: 0.449
LCLC-103H; first compound 2.53 µM
  relative viability: 0.442
NCI-H2347; first compound 0.08 µM
  relative viability: 0.407
NCI-H2347; first compound 0.253 µM
  relative viability: 0.445
NCI-H2347; first compound 0.8 µM
  relative viability: 0.439
NCI-H2347; first compound 2.53 µM
  relative viability: 0.454
PC-3 [JPC-3]; first compound 0.08 µM
  relative viability: 0.556
PC-3 [JPC-3]; first compound 0.253 µM
  relative viability: 0.548
PC-3 [JPC-3]; first compound 0.8 µM
  relative viability: 0.537
PC-3 [JPC-3]; first compound 2.53 µM
  relative viability: 0.581
NCI-H727; first compound 0.08 µM
  relative viability: 0.623
NCI-H727; first compound 0.253 µM
  relative viability: 0.667
NCI-H727; first compound 0.8 µM
  relative viability: 0.73
NCI-H727; first compound 2.53 µM
  relative viability: 0.658
NCI-H2228; first compound 0.08 µM
  relative viability: 0.762
NCI-H2228; first compound 0.253 µM
  relative viability: 0.654
NCI-H2228; first compound 0.8 µM
  relative viability: 0.821
NCI-H2228; first compound 2.53 µM
  relative viability: 0.897
SW 1573; first compound 0.08 µM
  relative viability: 0.421
SW 1573; first compound 0.8 µM
  relative viability: 0.385
SW 1573; first compound 2.53 µM
  relative viability: 0.363
LCLC-97TM1; first compound 0.08 µM
  relative viability: 0.236
LCLC-97TM1; first compound 0.253 µM
  relative viability: 0.247
LCLC-97TM1; first compound 0.8 µM
  relative viability: 0.228
LCLC-97TM1; first compound 2.53 µM
  relative viability: 0.253
NCI-H1650; first compound 0.08 µM
  relative viability: 0.335
NCI-H1650; first compound 0.8 µM
  relative viability: 0.357
NCI-H1650; first compound 2.53 µM
  relative viability: 0.336
201T; first compound 0.08 µM
  relative viability: 0.357
201T; first compound 0.253 µM
  relative viability: 0.346
201T; first compound 0.8 µM
  relative viability: 0.359
201T; first compound 2.53 µM
  relative viability: 0.363
HCC-44; first compound 0.08 µM
  relative viability: 0.98
HCC-44; first compound 0.253 µM
  relative viability: 0.827
HCC-44; first compound 0.8 µM
  relative viability: 0.949
HCC-44; first compound 2.53 µM
  relative viability: 1
LU99A; first compound 0.08 µM
  relative viability: 0.394
LU99A; first compound 0.253 µM
  relative viability: 0.442
LU99A; first compound 0.8 µM
  relative viability: 0.462
LU99A; first compound 2.53 µM
  relative viability: 0.402
A-427; first compound 0.08 µM
  relative viability: 0.514
A-427; first compound 0.253 µM
  relative viability: 0.515
A-427; first compound 0.8 µM
  relative viability: 0.519
A-427; first compound 2.53 µM
  relative viability: 0.559
PC-14; first compound 0.08 µM
  relative viability: 0.68
PC-14; first compound 0.253 µM
  relative viability: 0.459
PC-14; first compound 0.8 µM
  relative viability: 0.607
PC-14; first compound 2.53 µM
  relative viability: 0.519
SW 900; first compound 0.08 µM
  relative viability: 0.541
SW 900; first compound 0.253 µM
  relative viability: 0.565
SW 900; first compound 0.8 µM
  relative viability: 0.487
SW 900; first compound 2.53 µM
  relative viability: 0.564
COR-L23; first compound 0.08 µM
  relative viability: 0.338
COR-L23; first compound 0.253 µM
  relative viability: 0.225
COR-L23; first compound 0.8 µM
  relative viability: 0.366
COR-L23; first compound 2.53 µM
  relative viability: 0.322
LC-2-ad; first compound 0.08 µM
  relative viability: 0.489
LC-2-ad; first compound 0.253 µM
  relative viability: 0.459
LC-2-ad; first compound 0.8 µM
  relative viability: 0.44
LC-2-ad; first compound 2.53 µM
  relative viability: 0.508
LK-2; first compound 0.08 µM
  relative viability: 0.609
LK-2; first compound 0.253 µM
  relative viability: 0.544
LK-2; first compound 0.8 µM
  relative viability: 0.62
LK-2; first compound 2.53 µM
  relative viability: 0.609
H3255; first compound 0.08 µM
  relative viability: 0.317
H3255; first compound 0.253 µM
  relative viability: 0.318
H3255; first compound 0.8 µM
  relative viability: 0.355
H3255; first compound 2.53 µM
  relative viability: 0.283
NCI-H460; first compound 0.08 µM
  relative viability: 0.157
NCI-H460; first compound 0.253 µM
  relative viability: 0.0391
NCI-H460; first compound 0.8 µM
  relative viability: 0.139
NCI-H460; first compound 2.53 µM
  relative viability: 0.25
